According to US12371454B2, “Cyclic peptide compound having Kras inhibitory action” (priority 2019, dated 2025):
Starred links: 1 amine or outer side, 2 acyl side, 3 side chain; linkers in the order of their positions; H or OH if unused. Positions of bridges follow the written chain, without caps; N, C: chain ends. Non-standard residues stand in square brackets, D forms with d. Residues, ends and D or L forms follow the SMILES beside them. *: point of attachment. hPhe(3,5-F2-4-CF3) = N[C@@H](CCc1cc(F)c(C(F)(F)F)c(F)c1)C(=O)O; hPhe(3-Cl-4-CF3) = N[C@@H](CCc1ccc(C(F)(F)F)c(Cl)c1)C(=O)O; hPhe(3-F,4-CF3) = N[C@@H](CCc1ccc(C(F)(F)F)c(F)c1)C(=O)O; NMePhe(4-CF3) = CN[C@@H](Cc1ccc(C(F)(F)F)cc1)C(=O)O; hPhe(4-CF3) = N[C@@H](CCc1ccc(C(F)(F)F)cc1)C(=O)O; NMePhe(4-Cl) = CN[C@@H](Cc1ccc(Cl)cc1)C(=O)O; NMePhe(4-Me) = CN[C@@H](Cc1ccc(C)cc1)C(=O)O; NMedβ3hAla = C[C@H](CC(=O)[*:2])N(C)[*:1]; Phe(3-I) = N[C@@H](Cc1cccc(I)c1)C(=O)O; dαMeGly(allyl) = C=CC[C@@](C)(N)C(=O)O; NMeCha = CN[C@@H](CC1CCCCC1)C(=O)O; NMeGly(cPr) = CN[C@H](C(=O)O)C1CC1; NMeChg = CN[C@H](C(=O)O)C1CCCCC1; NMeF = CN[C@@H](Cc1ccccc1)C(=O)O; NMeI = CC[C@H](C)[C@H](NC)C(=O)O; NMeT = CN[C@H](C(=O)O)[C@@H](C)O; d(β3hL) = CC(C)C[C@@H](N)CC(=O)O; dNMeF = CN[C@H](Cc1ccccc1)C(=O)O; NMeD = CN[C@@H](CC(=O)O)C(=O)O; NMeL = CN[C@@H](CC(C)C)C(=O)O; NMeV = CN[C@H](C(=O)O)C(C)C; d(β3hA) = C[C@@H](N)CC(=O)O; NMeS = CN[C@@H](CO)C(=O)O; dPip = O=C(O)[C@H]1CCCCN1; Ac6c = NC1(C(=O)O)CCCCC1; NMeA = CN[C@@H](C)C(=O)O; NMeAib = CNC(C)(C)C(=O)O; Piperidide = C1CCN(*)CC1; Pra = C#CC[C@H](N)C(=O)O; Pyrrolidide = C1CCN(*)C1; Ac5c = NC1(C(=O)O)CCCC1; Aze = O=C(O)[C@@H]1CCN1; Ac3c = NC1(C(=O)O)CC1; Sar = CNCC(=O)O; Propyl = CCC*

biological target: T1, Kras and SOS1 (biotin-tagged human Kras loaded with GDP, His-tagged human SOS1) (Homo sapiens, UniProt P01116, G12D); experiment: Protein-protein interaction inhibition between Kras and SOS1 (KrasGl2D-SOS PPI) using AlphaScreen; format: binding; settings: AlphaScreen; biotin-tagged human Kras loaded with GDP, His-tagged human SOS1; read-out: KRAS G12D-SOS PPI IC50
T1 construct: made in house; host or cells: E. coli (stated for Kras only)
Procedure, shortened: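 Energy transfer from nickel-chelate donor beads bound to His-SOS1 to streptavidin acceptor beads bound to biotin-Kras, expressed in E. coli and loaded with GDP after purification, was monitored. Donors were excited at 680 nm; singlet oxygen reaching acceptors gave emission read at 520-620 nm.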

T1 sequence (P01116 1-188 isoform P01116-2 G12D): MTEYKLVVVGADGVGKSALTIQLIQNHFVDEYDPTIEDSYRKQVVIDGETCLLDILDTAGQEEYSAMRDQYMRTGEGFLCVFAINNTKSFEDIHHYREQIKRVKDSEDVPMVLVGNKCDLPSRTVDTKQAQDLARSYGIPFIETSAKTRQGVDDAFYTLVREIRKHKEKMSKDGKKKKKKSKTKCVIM

SMILES	IC50
CC[C@H](C)[C@@H]1NC(=O)[C@H](CC(C)C)N(C)C(=O)C[C@@H](CC(C)C)NC(=O)[C@H]([C@@H](C)CC)N(C)C(=O)C2(CCCC2)NC(=O)[C@@H]2CCCN2C(=O)[C@H](CCc2cc(F)c(C(F)(F)F)c(F)c2)NC(=O)CN(C)C(=O)[C@H](Cc2ccc(C(F)(F)F)cc2)N(C)C(=O)[C@@H]2CCN2C(=O)[C@H](C)N(C)C1=O [Compound 1918] (cyclo([Ac5c][NMeI][d(β3hL)][NMeL]I[NMeA][Aze][NMePhe(4-CF3)][Sar][hPhe(3,5-F2-4-CF3)]P))	280 nM
CC[C@H](C)[C@@H]1NC(=O)[C@H](CC(C)C)N(C)C(=O)C[C@@H](C)N(C)C(=O)[C@H](CC(C)C)NC(=O)C(C)(C)N(C)C(=O)[C@H](CC(C)C)NC(=O)[C@H](CCc2ccc(C(F)(F)F)c(Cl)c2)NC(=O)CN(C)C(=O)[C@H](CC2CCCCC2)N(C)C(=O)[C@@H]2CCN2C(=O)[C@H](C)N(C)C1=O [Compound 886] (cyclo([Aze][NMeCha][Sar][hPhe(3-Cl-4-CF3)]L[NMeAib]L[NMedβ3hAla][NMeL]I[NMeA]))	100 nM
CCCOC[C@H]1C(=O)N(C)[C@@H](CC(C)C)C(=O)N[C@H](C(=O)N2CCCC2)CC(=O)N(C)[C@@H](C)C(=O)N[C@@H]([C@@H](C)CC)C(=O)N(C)CC(=O)N(C)CC(=O)N(C)[C@@H](Cc2ccc(Cl)cc2)C(=O)N(C)CC(=O)N[C@@H](CCc2ccc(C(F)(F)F)cc2)C(=O)N[C@@H](CC(C)C)C(=O)N1C [Compound 739] ([NMeA]I[Sar][Sar][NMePhe(4-Cl)][Sar][hPhe(4-CF3)]L[NMeS](Propyl)[NMeL]D-Pyrrolidide; lactam N-11)	36 nM
CC[C@H](C)[C@@H]1NC(=O)[C@H](CC(C)C)N(C)C(=O)C[C@@H](C(=O)N(C)C)N(C)C(=O)[C@H]([C@@H](C)CC)N(C)C(=O)[C@H](C(C)C)NC(=O)[C@H](C)N(C)C(=O)[C@H](CCc2ccc(C(F)(F)F)c(Cl)c2)NC(=O)CN(C)C(=O)[C@H](Cc2ccc(C)cc2)N(C)C(=O)[C@@H]2CCN2C(=O)[C@H](C)N(C)C1=O [Compound 4] ([NMeL]I[NMeA][Aze][NMePhe(4-Me)][Sar][hPhe(3-Cl-4-CF3)][NMeA]V[NMeI][NMeD]-NMe2; lactam N-11)	13 nM
CC[C@H](C)[C@@H]1NC(=O)[C@H](C)N(C)C(=O)C[C@@H](C(=O)N2CCCCC2)N(C)C(=O)[C@H](C(C)C)N(C)C(=O)C2(CCCC2)NC(=O)[C@@H]2CCCN2C(=O)[C@H](CCc2ccc(C(F)(F)F)c(Cl)c2)NC(=O)[C@H]2CCCCN2C(=O)[C@H](CC2CCCCC2)N(C)C(=O)[C@@H]2CCN2C(=O)[C@H](C)N(C)C1=O [Compound 349] ([NMeA]I[NMeA][Aze][NMeCha][dPip][hPhe(3-Cl-4-CF3)]P[Ac5c][NMeV][NMeD]-Piperidide; lactam N-11)	190 nM
CC[C@H](C)[C@@H]1NC(=O)[C@H](CC(C)C)N(C)C(=O)C[C@@H](C)NC(=O)[C@H](C(C)C)N(C)C(=O)C2(CC2)NC(=O)[C@@H]2CCCN2C(=O)[C@H](CCc2ccc(C(F)(F)F)c(Cl)c2)NC(=O)CN(C)C(=O)[C@H](CC2CCCCC2)N(C)C(=O)CN(C)C(=O)CN(C)C1=O [Compound 1111] (cyclo([Ac3c][NMeV][d(β3hA)][NMeL]I[Sar][Sar][NMeCha][Sar][hPhe(3-Cl-4-CF3)]P))	41 nM
CC[C@H](C)[C@@H]1NC(=O)[C@H](CC(C)C)N(C)C(=O)C[C@@H](C)NC(=O)[C@H](CC(C)C)N(C)C(=O)C2(CCCCC2)NC(=O)[C@@H]2CCCN2C(=O)[C@H](CCc2ccc(C(F)(F)F)c(F)c2)NC(=O)CN(C)C(=O)[C@H](CC2CCCCC2)N(C)C(=O)CN(C)C(=O)CN(C)C1=O [Compound 231] (cyclo([Ac6c][NMeL][d(β3hA)][NMeL]I[Sar][Sar][NMeCha][Sar][hPhe(3-F,4-CF3)]P))	120 nM
CC[C@H](C)[C@@H]1NC(=O)[C@H](CC(C)C)N(C)C(=O)C[C@@H](C)NC(=O)[C@H](CC(C)C)N(C)C(=O)C2(CCCC2)NC(=O)[C@@H]2CCCN2C(=O)[C@H](CCc2ccc(C(F)(F)F)cc2)NC(=O)CN(C)C(=O)[C@H](Cc2ccc(Cl)cc2)N(C)C(=O)CN(C)C(=O)CN(C)C1=O [Compound 258] (cyclo([Ac5c][NMeL][d(β3hA)][NMeL]I[Sar][Sar][NMePhe(4-Cl)][Sar][hPhe(4-CF3)]P))	36 nM
C=CC[C@@]1(C)NC(=O)[C@@H]2CCCN2C(=O)[C@H](CCc2ccc(C(F)(F)F)c(Cl)c2)NC(=O)CN(C)C(=O)[C@H](CC2CCCCC2)N(C)C(=O)CN(C)C(=O)CN(C)C(=O)[C@H]([C@@H](C)CC)NC(=O)[C@H](CC(C)C)N(C)C(=O)C[C@@H](C)NC(=O)[C@H](C(C)C)N(C)C1=O [Compound 665] (cyclo(I[Sar][Sar][NMeCha][Sar][hPhe(3-Cl-4-CF3)]P[dαMeGly(allyl)][NMeV][d(β3hA)][NMeL]))	37 nM
CC[C@H](C)[C@@H]1NC(=O)[C@H](C)N(C)C(=O)C[C@@H](C(=O)N2CCCCC2)N(C)C(=O)[C@H]([C@@H](C)CC)N(C)C(=O)C2(CCCC2)NC(=O)[C@@H](Cc2ccccc2)N(C)C(=O)[C@H](CCc2cc(F)c(C(F)(F)F)c(F)c2)NC(=O)CN(C)C(=O)[C@H](Cc2ccc(C)cc2)N(C)C(=O)[C@@H]2CCN2C(=O)[C@H](C)N(C)C1=O [Compound 1887] ([NMeA]I[NMeA][Aze][NMePhe(4-Me)][Sar][hPhe(3,5-F2-4-CF3)][dNMeF][Ac5c][NMeI][NMeD]-Piperidide; lactam N-11)	180 nM
CC[C@H](C)[C@@H]1NC(=O)[C@H](C)N(C)C(=O)C[C@@H](C)NC(=O)[C@H](C(C)C)N(C)C(=O)C2(CCCC2)NC(=O)[C@@H]2CCCN2C(=O)[C@H](CCc2ccc(C(F)(F)F)c(Cl)c2)NC(=O)CN(C)C(=O)[C@H](Cc2ccccc2)N(C)C(=O)[C@@H]2CCCN2C(=O)CN(C)C1=O [Compound 1778] (cyclo([Ac5c][NMeV][d(β3hA)][NMeA]I[Sar]P[NMeF][Sar][hPhe(3-Cl-4-CF3)]P))	7.3 nM
CC[C@H](C)[C@@H]1NC(=O)[C@H](CC(C)C)N(C)C(=O)C[C@@H](C(=O)N2CCCCC2)N(C)C(=O)[C@H](C2CCCCC2)N(C)C(=O)C2(CCCC2)NC(=O)[C@@H]2CCCN2C(=O)[C@H](CCc2ccc(C(F)(F)F)c(Cl)c2)NC(=O)CN(C)C(=O)[C@H]([C@@H](C)O)N(C)C(=O)CN(C)C(=O)CN(C)C1=O [Compound 427] ([NMeL]I[Sar][Sar][NMeT][Sar][hPhe(3-Cl-4-CF3)]P[Ac5c][NMeChg][NMeD]-Piperidide; lactam N-11)	0.71 nM
C#CC[C@@H]1NC(=O)[C@H](Cc2cccc(I)c2)NC(=O)CN(C)C(=O)[C@H](Cc2ccccc2)N(C)C(=O)CN(C)C(=O)CN(C)C(=O)[C@H]([C@@H](C)CC)NC(=O)[C@H](CC(C)C)N(C)C(=O)C[C@@H](C(=O)N2CCCCC2)N(C)C(=O)[C@H](CC(C)C)NC(=O)C(C)(C)N(C)C1=O [Compound 1184] ([NMeL]I[Sar][Sar][NMeF][Sar][Phe(3-I)][Pra][NMeAib]L[NMeD]-Piperidide; lactam N-11)	130 nM
CC[C@H](C)[C@@H]1NC(=O)[C@H](CC(C)C)N(C)C(=O)C[C@@H](C(=O)N2CCCCC2)N(C)C(=O)[C@H](C(C)C)N(C)C(=O)C2(CCCC2)NC(=O)[C@@H]2CCCN2C(=O)[C@H](CCc2ccc(C(F)(F)F)c(Cl)c2)NC(=O)CN(C)C(=O)[C@H](CC2CCCCC2)N(C)C(=O)[C@@H]2CCN2C(=O)[C@H](C2CC2)N(C)C1=O [Compound 1553] ([NMeL]I[NMeGly(cPr)][Aze][NMeCha][Sar][hPhe(3-Cl-4-CF3)]P[Ac5c][NMeV][NMeD]-Piperidide; lactam N-11)	12 nM
